Experimental data reported in patent US20250051356A1, “RIFABUTIN ANALOGS FOR THE TREATMENT OF DISEASE” (priority 2021, published 2025).
Converted amounts (≈) assume the structure as drawn. Read-outs that look alike come from different tables or passages of the source.

What was measured:
Type in all cases: cell-based
[1] = system: S. aureus (UAMS-1625 strain); assay: MIC by broth microdilution against S. aureus; details: Staphylococcus aureus, read-out: MIC S. aureus
M. kansasii (ATCC 12478) = assay: MIC against M. kansasii in CAMHB + ADC; details: Mycobacterium kansasii, ATCC12478; ATCC 12478; CAMHB + ADC (5%); read-out: MIC M. kansasii
[2] = system: M. abscessus subsp. abscessus ATCC 19977; assay: MIC against M. abscessus in Middlebrook 7H9 + ADC; details: Mycobacteroides abscessus, ATCC19977; ATCC 19977; 7H9 + ADC; read-out: MIC M. abscessus
[3] = system: A. baumannii (HUMC1 strain); assay: MIC by broth microdilution against A. baumannii in RPMI + 10% FCS; details: Acinetobacter baumannii; HUMC1 strain; RPMI + 10% FCS; read-out: MIC A. baumannii
M. xenopi (ATCC 19250) = assay: MIC against M. xenopi in CAMHB + ADC; details: Mycobacterium xenopi
M. avium (ATCC 25291) = assay: MIC against M. avium in CAMHB + ADC; details: Mycobacterium avium, ATCC25291; ATCC 25291; CAMHB + ADC (5%); read-out: MIC M. avium
[4] = ATCC19250, ATCC 19250, CAMHB + ADC (5%), read-out: MIC M. xenopi
[5] = ATCC19250, read-out: MIC M. xenopi

SMILES | MIC [1] | MIC (M. kansasii (ATCC 12478)) | MIC [2] | MIC [3] | MIC (M. xenopi (ATCC 19250); [4]) | MIC (M. avium (ATCC 25291)) | MIC (M. xenopi (ATCC 19250); [5])
CO[C@H]1/C=C/O[C@@]2(C)Oc3c(C)c(O)c4c(c3C2=O)C2=NC3(CCN(CC(C)C)CC3)NC2=C(NC(=O)/C(C)=C\C=C\[C@H](C)[C@H](O)[C@@H](C)[C@@H](O)[C@@H](C)[C@H](OC(=O)CC(=O)N2CCCN(Cc3ccncc3)CC2)[C@@H]1C)C4=O [Compound 128] | 0.06 µg/mL (≈ 0.0564 µM) | 0.03 µg/mL | 0.25 µg/mL | ≤ 0.002 µg/mL | 0.25 µg/mL | 0.5 µg/mL | –
CO[C@H]1/C=C/OC2(C)Oc3c(C)c(O)c4c(c3C2=O)C2=NC3(CCN(CC(C)C)CC3)NC2=C(NC(=O)/C(C)=C\C=C\[C@H](C)[C@H](O)[C@@H](C)[C@@H](O)[C@@H](C)[C@H](OC(=O)CC(=O)N2CCN(C3CCCCC3)CC2)[C@@H]1C)C4=O (stereo partly drawn) [Compound 96] | 0.125 µg/mL (≈ 0.12 µM) | 0.008 µg/mL | 0.25 µg/mL | 0.008 µg/mL | – | 0.03 µg/mL | 0.125 µg/mL
CO[C@H]1/C=C/O[C@@]2(C)Oc3c(C)c(O)c4c(c3C2=O)C2=NC3(CCN(CC(C)C)CC3)NC2=C(NC(=O)/C(C)=C\C=C\[C@H](C)[C@H](O)[C@@H](C)[C@@H](O)[C@@H](C)[C@H](OC(=O)CC(=O)N2CCC(c3ccncc3)CC2)[C@@H]1C)C4=O [Compound 104] | 0.06 µg/mL (≈ 0.058 µM) | 0.004 µg/mL | 0.25 µg/mL | 0.004 µg/mL | 0.125 µg/mL | 0.25 µg/mL | –
CO[C@H]1/C=C/O[C@@]2(C)Oc3c(C)c(O)c4c(c3C2=O)C2=NC3(CCN(CC(C)C)CC3)NC2=C(NC(=O)/C(C)=C\C=C\[C@H](C)[C@H](O)[C@@H](C)[C@@H](O)[C@@H](C)[C@H](OC(=O)CC(=O)N2CCN(Cc3ccccc3)CC2)[C@@H]1C)C4=O [Compound 91] | 0.25 µg/mL (≈ 0.238 µM) | 0.001 µg/mL | 0.125 µg/mL | 0.016 µg/mL | 0.03 µg/mL | 0.125 µg/mL | –
CO[C@H]1/C=C/O[C@@]2(C)Oc3c(C)c(O)c4c(c3C2=O)C2=NC3(CCN(CC(C)C)CC3)NC2=C(NC(=O)/C(C)=C\C=C\[C@H](C)[C@H](O)[C@@H](C)[C@@H](O)[C@@H](C)[C@H](OC(=O)CC(=O)N2CCCN(C)CC2)[C@@H]1C)C4=O [Compound 120] | 0.06 µg/mL (≈ 0.0608 µM) | 0.25 µg/mL | 0.25 µg/mL | 0.06 µg/mL | 1 µg/mL | 2 µg/mL | –
CCC(C(=O)O[C@H]1[C@H](C)[C@H](O)[C@H](C)[C@@H](O)[C@@H](C)/C=C/C=C(/C)C(=O)NC2=C3NC4(CCN(CC(C)C)CC4)N=C3c3c(c(O)c(C)c4c3C(=O)[C@@](C)(O/C=C/[C@H](OC)[C@H]1C)O4)C2=O)C(=O)N1CCCN(c2ccc(F)cc2)CC1 (stereo partly drawn) [Compound 79] | 0.5 µg/mL (≈ 0.456 µM) | 0.004 µg/mL | 0.125 µg/mL | 0.03 µg/mL | 0.03 µg/mL | 0.125 µg/mL | –
CO[C@H]1/C=C/O[C@@]2(C)Oc3c(C)c(O)c4c(c3C2=O)C2=NC3(CCN(CC(C)C)CC3)NC2=C(NC(=O)/C(C)=C\C=C\[C@H](C)[C@H](O)[C@@H](C)[C@@H](O)[C@@H](C)[C@H](OC(=O)C(C)C(=O)N2CCC(N(C)c3ccccc3)CC2)[C@@H]1C)C4=O (stereo partly drawn) [Compound 40] | 0.5 µg/mL (≈ 0.464 µM) | 0.001 µg/mL | 0.125 µg/mL | 0.03 µg/mL | 0.03 µg/mL | 0.06 µg/mL | –
CO[C@H]1/C=C/O[C@@]2(C)Oc3c(C)c(O)c4c(c3C2=O)C2=NC3(CCN(CC(C)C)CC3)NC2=C(NC(=O)/C(C)=C\C=C\[C@H](C)[C@H](O)[C@@H](C)[C@@H](O)[C@@H](C)[C@H](OC(=O)CC(=O)N2CCC(n3nnc5cc(C(F)(F)F)ccc53)CC2)[C@@H]1C)C4=O [Compound 49] | 1 µg/mL (≈ 0.875 µM) | 0.008 µg/mL | 0.25 µg/mL | 0.25 µg/mL | 0.03 µg/mL | 0.06 µg/mL | –
CO[C@H]1/C=C/O[C@@]2(C)Oc3c(C)c(O)c4c(c3C2=O)C2=NC3(CCN(CC(C)C)CC3)NC2=C(NC(=O)/C(C)=C\C=C\[C@H](C)[C@H](O)[C@@H](C)[C@@H](O)[C@@H](C)[C@H](OC(=O)CC(=O)N2CCC(O)(Cc3ccccc3)CC2)[C@@H]1C)C4=O [Compound 54] | 0.125 µg/mL (≈ 0.117 µM) | 0.008 µg/mL | 0.25 µg/mL | 0.008 µg/mL | – | 0.06 µg/mL | 0.125 µg/mL
